Experiment [1] deals with U87MG cells. The experiment in a line: MTS cell viability assay. The format is cell-based, human. The settings on record: 20 uM TGX-221 and 50 uM TMZ, 4 days, MTS. Here is the method: Cell viability was measured by the MTS assay. P values were determined using the student t test or one-way ANOVA. Error bars represent three independent experiments.
Cell viability was determined using the MTS viability assay. The vehicle DMSO was the control and set as 100%. Treated cells were normalized to DMSO-treated cells. […] (FIG. 43D) Scores of Excess Over Bliss in FIG. 43C calculated using the Bliss Independence model. One-way ANOVA and student t test were used to determine statistical significance.
Cell viability was determined by the MTS cell viability assay (Promega) as described previously 21,24-27. In brief, 250 to 1,000 cells were plated in the wells of a 96-well plate-based upon the cell growth rate. Because the drug treatment usually takes 6-7 days, fast-growing cells could be over-grown if plated at a high cell density. For αCT1 treatment experiments, Applicant intended to plate cells at a low density to minimize the formation of gap junctions, and thus, more Cx43-hemichannels can be present. […] At each hour time point, the absorbance at 490 nm was measured using a FilterMax F3 microplate reader (Molecular Devices, LLC) according to the manufacturer's instructions. Percent cell viability was obtained by dividing the absorbance of treatment groups to those of untreated and respective vehicle control groups.

In experiment [2] the test system is LN229/GSCs. Briefly: wound-healing (migration) assay. The format is cell-based. The note with it: 8 μM, 24 hours. Here is the method: (§1) (FIG. 8A) Wound-healing assay. Cells were plated confluently and then treated with PI3K isoform-selective inhibitors at 8 μM for 24 hours. Cells were imaged at 0- and 24-hour time point. Images of 24-hour time point are shown. Scale bar: […]. (FIG. 8B-8D) Quantification of migration distance. Images from three different areas were analyzed using Image J. Migration distances were obtained by subtracting 24-hour measurements with those of 0-hour.

For experiment [3], the system named is SF295 cells. Briefly: wound-healing (migration) assay. The settings on record: 8 μM, 24 hours. Format: cell-based. The procedure: as §1
The target of experiment [4] is p110c (Homo sapiens, UniProt P42336). The experiment in a line: PI3K subunit activity ELISA. Format: biochemical. The settings on record: 100 nM. The procedure:
(§2) Relative activity is the ratio of respective treated groups to their non-treated controls.
(§3) Applicant also included a control scramble peptide containing the antennapedia sequence followed by the amino acid sequence of Ante-Selectide-18 randomly scrambled. […] Applicant reports that this drug is not effective at inhibiting the kinase activity of p110b or other PI3K subunits at 100 nM, showing the promise of the Ante-Selectide-18 peptide as a potent selective p110b inhibitor at a low dose.

The target in experiment [5] is p110γ (Homo sapiens, UniProt P48736). Briefly: PI3K subunit activity ELISA. The format is biochemical. The note with it: 100 nM. The procedure: as §2, §3
For orientation: An ELISA detects its analyte on a solid surface through an enzyme-linked reagent.

The target in experiment [6] is p110δ (Homo sapiens, UniProt O00329). Briefly: PI3K subunit activity ELISA. Format: biochemical. The note with it: 100 nM. The procedure: as §2, §3
Chain of p110δ (O00329 whole entry): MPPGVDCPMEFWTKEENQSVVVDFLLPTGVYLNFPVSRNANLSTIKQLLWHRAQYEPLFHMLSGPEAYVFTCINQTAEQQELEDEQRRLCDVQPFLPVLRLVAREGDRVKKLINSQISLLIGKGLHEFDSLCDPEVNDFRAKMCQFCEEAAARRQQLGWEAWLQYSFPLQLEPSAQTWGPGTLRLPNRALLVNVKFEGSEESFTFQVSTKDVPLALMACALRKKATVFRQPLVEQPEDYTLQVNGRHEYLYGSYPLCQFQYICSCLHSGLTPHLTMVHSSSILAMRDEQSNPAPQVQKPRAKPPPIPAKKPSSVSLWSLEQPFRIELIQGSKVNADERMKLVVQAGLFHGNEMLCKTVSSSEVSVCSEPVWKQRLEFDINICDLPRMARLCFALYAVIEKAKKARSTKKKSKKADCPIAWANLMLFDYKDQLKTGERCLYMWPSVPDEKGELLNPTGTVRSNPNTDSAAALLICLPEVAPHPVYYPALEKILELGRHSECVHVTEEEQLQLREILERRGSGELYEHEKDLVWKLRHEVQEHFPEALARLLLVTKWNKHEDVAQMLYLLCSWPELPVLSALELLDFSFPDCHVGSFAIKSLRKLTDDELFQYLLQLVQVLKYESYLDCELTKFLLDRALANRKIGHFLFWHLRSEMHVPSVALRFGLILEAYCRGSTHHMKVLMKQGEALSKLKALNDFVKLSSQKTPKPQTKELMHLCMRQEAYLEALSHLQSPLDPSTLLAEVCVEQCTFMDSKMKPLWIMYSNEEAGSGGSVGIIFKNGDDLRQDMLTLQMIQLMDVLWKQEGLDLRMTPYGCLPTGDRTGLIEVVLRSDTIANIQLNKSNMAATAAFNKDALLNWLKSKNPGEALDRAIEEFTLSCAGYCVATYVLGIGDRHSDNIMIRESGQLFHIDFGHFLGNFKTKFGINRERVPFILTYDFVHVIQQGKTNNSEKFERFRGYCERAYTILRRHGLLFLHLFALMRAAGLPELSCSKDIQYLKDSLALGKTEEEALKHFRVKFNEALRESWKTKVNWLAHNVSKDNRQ
Chain of p110δ (P27986 whole entry partner): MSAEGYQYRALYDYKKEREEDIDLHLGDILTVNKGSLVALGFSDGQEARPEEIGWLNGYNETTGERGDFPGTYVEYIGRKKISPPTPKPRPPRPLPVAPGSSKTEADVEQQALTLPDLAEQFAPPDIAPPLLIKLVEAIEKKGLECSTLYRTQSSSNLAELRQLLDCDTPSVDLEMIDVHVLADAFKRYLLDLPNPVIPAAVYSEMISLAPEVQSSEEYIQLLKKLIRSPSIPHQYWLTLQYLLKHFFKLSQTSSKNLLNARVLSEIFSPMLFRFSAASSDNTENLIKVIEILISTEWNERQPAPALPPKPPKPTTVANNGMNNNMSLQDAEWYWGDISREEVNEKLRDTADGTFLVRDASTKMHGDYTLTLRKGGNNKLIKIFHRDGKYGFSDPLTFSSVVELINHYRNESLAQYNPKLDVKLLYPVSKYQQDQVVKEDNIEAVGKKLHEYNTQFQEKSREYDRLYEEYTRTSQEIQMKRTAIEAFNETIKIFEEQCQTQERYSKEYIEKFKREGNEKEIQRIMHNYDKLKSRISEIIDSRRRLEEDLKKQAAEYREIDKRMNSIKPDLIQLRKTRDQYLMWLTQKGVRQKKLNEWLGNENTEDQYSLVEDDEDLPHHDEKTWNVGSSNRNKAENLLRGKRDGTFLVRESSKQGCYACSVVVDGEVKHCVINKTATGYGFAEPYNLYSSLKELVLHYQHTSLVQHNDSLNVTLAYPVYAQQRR

Chain of p110γ (P48736 whole entry): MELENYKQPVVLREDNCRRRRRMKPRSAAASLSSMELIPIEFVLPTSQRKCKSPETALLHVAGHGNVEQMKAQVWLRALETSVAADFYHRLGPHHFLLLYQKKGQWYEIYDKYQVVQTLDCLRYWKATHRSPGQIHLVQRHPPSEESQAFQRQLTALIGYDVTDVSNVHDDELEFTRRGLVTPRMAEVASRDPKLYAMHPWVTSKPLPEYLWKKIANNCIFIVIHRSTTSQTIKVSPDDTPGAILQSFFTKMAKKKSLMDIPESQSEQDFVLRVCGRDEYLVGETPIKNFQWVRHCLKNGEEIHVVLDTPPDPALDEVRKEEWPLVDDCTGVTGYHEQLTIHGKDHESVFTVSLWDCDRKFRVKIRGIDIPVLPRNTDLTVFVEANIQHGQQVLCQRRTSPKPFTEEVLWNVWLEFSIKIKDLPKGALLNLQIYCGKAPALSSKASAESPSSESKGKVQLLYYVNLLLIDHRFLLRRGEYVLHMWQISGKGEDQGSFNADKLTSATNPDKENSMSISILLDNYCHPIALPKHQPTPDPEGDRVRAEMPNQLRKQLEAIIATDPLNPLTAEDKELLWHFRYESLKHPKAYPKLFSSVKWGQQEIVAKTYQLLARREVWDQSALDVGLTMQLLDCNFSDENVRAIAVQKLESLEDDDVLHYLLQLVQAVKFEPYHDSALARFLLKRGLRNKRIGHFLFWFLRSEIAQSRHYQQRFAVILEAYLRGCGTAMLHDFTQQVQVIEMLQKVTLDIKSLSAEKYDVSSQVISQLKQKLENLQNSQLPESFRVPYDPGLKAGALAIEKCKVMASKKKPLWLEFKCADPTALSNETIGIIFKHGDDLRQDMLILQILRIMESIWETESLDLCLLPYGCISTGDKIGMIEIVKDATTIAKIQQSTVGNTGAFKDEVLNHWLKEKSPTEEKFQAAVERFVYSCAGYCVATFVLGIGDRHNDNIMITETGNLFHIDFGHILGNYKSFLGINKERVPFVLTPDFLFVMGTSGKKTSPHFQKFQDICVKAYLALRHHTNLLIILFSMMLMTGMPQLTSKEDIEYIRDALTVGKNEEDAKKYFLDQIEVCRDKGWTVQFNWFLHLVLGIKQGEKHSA
Chain of p110c (P42336 whole entry): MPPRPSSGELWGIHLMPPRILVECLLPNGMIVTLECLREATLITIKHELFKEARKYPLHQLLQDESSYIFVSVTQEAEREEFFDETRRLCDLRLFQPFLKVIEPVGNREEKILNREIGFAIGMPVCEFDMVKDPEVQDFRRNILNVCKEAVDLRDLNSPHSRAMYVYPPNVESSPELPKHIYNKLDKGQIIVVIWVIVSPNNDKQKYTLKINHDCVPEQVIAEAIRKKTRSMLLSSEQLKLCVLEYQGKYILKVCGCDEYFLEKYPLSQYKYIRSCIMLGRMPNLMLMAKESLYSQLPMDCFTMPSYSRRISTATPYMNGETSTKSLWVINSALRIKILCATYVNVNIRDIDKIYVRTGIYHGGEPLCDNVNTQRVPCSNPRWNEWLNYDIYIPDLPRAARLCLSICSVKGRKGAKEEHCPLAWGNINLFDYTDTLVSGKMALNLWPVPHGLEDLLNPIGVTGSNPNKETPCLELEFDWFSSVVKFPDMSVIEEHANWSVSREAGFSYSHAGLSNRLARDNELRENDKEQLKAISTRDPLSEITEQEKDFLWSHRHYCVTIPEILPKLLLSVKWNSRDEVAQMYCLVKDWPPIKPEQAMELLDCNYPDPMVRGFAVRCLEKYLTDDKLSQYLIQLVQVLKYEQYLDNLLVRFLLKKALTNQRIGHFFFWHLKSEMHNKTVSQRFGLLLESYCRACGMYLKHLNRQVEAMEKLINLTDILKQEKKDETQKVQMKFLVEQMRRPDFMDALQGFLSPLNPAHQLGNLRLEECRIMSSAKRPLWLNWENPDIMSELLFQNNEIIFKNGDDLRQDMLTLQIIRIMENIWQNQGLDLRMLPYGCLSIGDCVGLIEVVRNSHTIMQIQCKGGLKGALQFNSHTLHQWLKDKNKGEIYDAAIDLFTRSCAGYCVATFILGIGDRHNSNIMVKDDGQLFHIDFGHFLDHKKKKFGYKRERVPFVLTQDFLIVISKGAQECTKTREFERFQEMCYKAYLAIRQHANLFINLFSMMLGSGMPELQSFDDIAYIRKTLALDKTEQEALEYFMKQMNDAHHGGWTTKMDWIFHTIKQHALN

With `Cc1cc(C(C)Nc2ccccc2)c2nc(N3CCOCC3)cc(=O)n2c1` (stereo not drawn) [TGX-221], the TMZ sensitivity entry in experiment [1] was “increased TMZ sensitivity”. Also, the cell migration entry in experiment [2] and in experiment [3] was “inhibited the migration” in each case. For the same molecule, in experiment [4], the “activity of PI3K subunit p110c” value is given as “not effective”. Further, the “activity of PI3K subunit p110γ” value in experiment [5] is listed as “not effective”. In experiment [6], the “activity of PI3K subunit p110δ” value is listed as “not effective”.

For the origin of these results see US20240075093A1, “COMPOSITIONS AND METHODS OF TREATING A PI3K MEDIATED DISEASE” (VIRGINIA TECH INTELLECTUAL PROPERTIES, INC., priority 2020, published 2024).
